“Also recorded” adds a separate entry of the source.
Legend:
Fas-L = Fas-L expression in MSCs (western blotting); assay type: cell-based, mice
Source text: Bone marrow cells were flushed from the bone cavity of femurs and tibias of B6 mice (C57BL/6 J) with about 2% heat inactivated fetal bovine serum (Equitech-Bio, Kerrville, Tex., USA) in PBS, and MSCs positive for CD73, CD90, CD105, CD146, CD166, Sca-1 and SSEA-4, but negative for CD11b, CD31, CD34 and CD45, were obtained as previously described by Liu et al. “Mesenchymal stem cell-based tissue regeneration is governed by recipient T lymphocytes via IFN-γ and TNF-α” Nat Med 2011, 17:1594-1601. The entire content of this publication is incorporated herein by reference. The cells with MSC character were cultured with alpha minimum essential medium (Invitrogen) supplemented with about 20% fetal bovine serum and 2 mM L-glutamine (Invitrogen) in a humidified atmosphere of about 95% air and about 5% CO2 at about 37° C. for about 3 days before co-culture. See Oyajobi et al. “Dual effects of macrophage inflammatory protein-1alpha on osteolysis and tumor burden in the murine 5TGM1 model of myeloma bone disease” Blood 2003, 102:311-319. The entire content of this publication is incorporated herein by reference. Additionally, MSCs, which had no Fas-L, were isolated from generalized lymphoproliferative disease (gld) mice for use in comparative experiments. B6 and gld mice in the same background ([…]) were purchased from the Jackson Laboratory. […]

5TGM1 MM cells [1] = test: Microcomputed tomography of bone density in MM model mice; assay type: in vivo; details: microcomputed tomography after about 4 weeks; P<0.05
Description: A 5TGM1 MM model was conducted in weight-matched, 8-week-old to 10-week-old female bg-nu/nu-xid mice from the Jackson Lab (Bar Harbor, Me., USA). The use of animals for research was approved through the Institutional Ethics Committee/Institutional Review Board of the University of Southern California (protocol #10941). The mice were housed in isolator cages, and autoclaved chow and acidified water were provided ad libitum. Disseminated MM was induced through the intravenous inoculation of about 6×10^6 5TGM1 cells in about 200 μl PBS in bg-nu/nu-xid mice through the tail vein (about 6×10^6/10 g body weight). […]
The cross-sectional volumetric bone mineral density was measured in right femur diaphysis of the mice in each group after about 4 weeks of feeding (for each group, n=6). […] Using two-dimensional images, a region of interest in secondary spongiosa was manually drawn near the endocortical surface, and cancellous bone morphometric parameters including the bone volume relative to the tissue volume (percentage) and the trabecular thickness (millimeters) were assessed. A trained observer blinded to the composition of the different groups and treatments received analyzed the number and surface area of radiolucent lesions.

5TGM1 MM cells [2] = test: MM cell metastasis in lungs and kidneys of MM model mice; assay type: in vivo; details: after about 4 weeks
Description: A 5TGM1 MM model was conducted in weight-matched, 8-week-old to 10-week-old female bg-nu/nu-xid mice from the Jackson Lab (Bar Harbor, Me., USA). The use of animals for research was approved through the Institutional Ethics Committee/Institutional Review Board of the University of Southern California (protocol #10941). The mice were housed in isolator cages, and autoclaved chow and acidified water were provided ad libitum. Disseminated MM was induced through the intravenous inoculation of about 6×10^6 5TGM1 cells in about 200 μl PBS in bg-nu/nu-xid mice through the tail vein (about 6×10^6/10 g body weight). After tumor cell inoculation, multiple MM model mice were randomized to receive the injection of either MSCs (once, about 1×10^6 MSCs/10 g body weight) via the tail vein (MSC group) or […] (L-PAM; weekly, about 50 μg/10 g body weight) in the abdominal cavity (L-PAM group), as shown in FIG. 1A. See Akiyama et al. “Mesenchymal-stem-cell-induced immunoregulation involves FAS-ligand/FAS-mediated T cell apoptosis” Cell Stem Cell 2012, 10:544-555. The entire content of this publication is incorporated herein by reference. L-Phenylalanine mustard, or L-PAM, otherwise known as melphalan, is used as the standard treatment in older MM patients. […]

5TGM1 MM cells [3] = test: 5TGM1 multiple myeloma model mice: survival and cancroid pearls; assay type: in vivo
Description: A 5TGM1 MM model was conducted in weight-matched, 8-week-old to 10-week-old female bg-nu/nu-xid mice from the Jackson Lab (Bar Harbor, Me., USA). The use of animals for research was approved through the Institutional Ethics Committee/Institutional Review Board of the University of Southern California (protocol #10941). The mice were housed in isolator cages, and autoclaved chow and acidified water were provided ad libitum. Disseminated MM was induced through the intravenous inoculation of about 6×10^6 5TGM1 cells in about 200 μl PBS in bg-nu/nu-xid mice through the tail vein (about 6×10^6/10 g body weight). After tumor cell inoculation, multiple MM model mice were randomized to receive the injection of either MSCs (once, about 1×10^6 MSCs/10 g body weight) via the tail vein (MSC group) or […] (L-PAM; weekly, about 50 μg/10 g body weight) in the abdominal cavity (L-PAM group), as shown in FIG. 1A. See Akiyama et al. “Mesenchymal-stem-cell-induced immunoregulation involves FAS-ligand/FAS-mediated T cell apoptosis” Cell Stem Cell 2012, 10:544-555. The entire content of this publication is incorporated herein by reference. L-Phenylalanine mustard, or L-PAM, otherwise known as melphalan, is used as the standard treatment in older MM patients. See Musto P. et al. “Melphalan: old and new uses of a still master drug for multiple myeloma” Expert Opin Investig Drugs 2007, 16:1467-1487. The entire content of this publication is incorporated herein by reference. MM model mice with no treatment served as the positive control (MM group). Original nude mice with no treatment served as the negative control (Control group). The 6-week survival rates of the mice in different groups were compared. After about 4 weeks of feeding, the cancroid pearls in the neck, tail root and abdominal cavity of the mice in different groups were identified for analysis. […]

[4] = neck, tail root and abdominal cavity, after about 4 weeks, versus MM group

| Compound | expression of Fas-L in MSCs after aspirin treatment (Fas-L) | bone density (BD) in lumbus and collum femoris (5TGM1 MM cells [1]) | metastasis rate in the kidney tissue (5TGM1 MM cells [2]) | 6-week survival rate (5TGM1 MM cells [3]; MM model mice, MSCs once via tail vein, L-PAM weekly in abdominal cavity, versus untreated MM group, P<0.05) | number of cancroid pearls (5TGM1 MM cells [3]; [4]) | size of cancroid pearls (5TGM1 MM cells [3]; [4]) |
| --- | --- | --- | --- | --- | --- | --- |
| CC(=O)Oc1ccccc1C(=O)O [Aspirin, aspirin] | enhanced expression of Fas-L in MSCs | – | – | – | – | – |
| N[C@@H](Cc1ccc(N(CCCl)CCCl)cc1)C(=O)O [L-PAM, L-Phenylalanine mustard] | – | MM group was much lower than those of the MSC group, the L-PAM group | no significant difference | prolonged survival compared with the MM group; also recorded: higher than the MM group | no significant difference | smaller compared with the MM group |

Reference: patent US10098913B2, “Composition of stem cells having highly expressed FAS ligand” (UNIVERSITY OF SOUTHERN CALIFORNIA, priority 2013, dated 2018)
